# Assay results reported in the Kinase Knowledgebase extract (Sharma et al. 2016).
# Molecular target: EGFR (human) (UniProt P00533)
# Sequence (P00533 whole entry, looked up): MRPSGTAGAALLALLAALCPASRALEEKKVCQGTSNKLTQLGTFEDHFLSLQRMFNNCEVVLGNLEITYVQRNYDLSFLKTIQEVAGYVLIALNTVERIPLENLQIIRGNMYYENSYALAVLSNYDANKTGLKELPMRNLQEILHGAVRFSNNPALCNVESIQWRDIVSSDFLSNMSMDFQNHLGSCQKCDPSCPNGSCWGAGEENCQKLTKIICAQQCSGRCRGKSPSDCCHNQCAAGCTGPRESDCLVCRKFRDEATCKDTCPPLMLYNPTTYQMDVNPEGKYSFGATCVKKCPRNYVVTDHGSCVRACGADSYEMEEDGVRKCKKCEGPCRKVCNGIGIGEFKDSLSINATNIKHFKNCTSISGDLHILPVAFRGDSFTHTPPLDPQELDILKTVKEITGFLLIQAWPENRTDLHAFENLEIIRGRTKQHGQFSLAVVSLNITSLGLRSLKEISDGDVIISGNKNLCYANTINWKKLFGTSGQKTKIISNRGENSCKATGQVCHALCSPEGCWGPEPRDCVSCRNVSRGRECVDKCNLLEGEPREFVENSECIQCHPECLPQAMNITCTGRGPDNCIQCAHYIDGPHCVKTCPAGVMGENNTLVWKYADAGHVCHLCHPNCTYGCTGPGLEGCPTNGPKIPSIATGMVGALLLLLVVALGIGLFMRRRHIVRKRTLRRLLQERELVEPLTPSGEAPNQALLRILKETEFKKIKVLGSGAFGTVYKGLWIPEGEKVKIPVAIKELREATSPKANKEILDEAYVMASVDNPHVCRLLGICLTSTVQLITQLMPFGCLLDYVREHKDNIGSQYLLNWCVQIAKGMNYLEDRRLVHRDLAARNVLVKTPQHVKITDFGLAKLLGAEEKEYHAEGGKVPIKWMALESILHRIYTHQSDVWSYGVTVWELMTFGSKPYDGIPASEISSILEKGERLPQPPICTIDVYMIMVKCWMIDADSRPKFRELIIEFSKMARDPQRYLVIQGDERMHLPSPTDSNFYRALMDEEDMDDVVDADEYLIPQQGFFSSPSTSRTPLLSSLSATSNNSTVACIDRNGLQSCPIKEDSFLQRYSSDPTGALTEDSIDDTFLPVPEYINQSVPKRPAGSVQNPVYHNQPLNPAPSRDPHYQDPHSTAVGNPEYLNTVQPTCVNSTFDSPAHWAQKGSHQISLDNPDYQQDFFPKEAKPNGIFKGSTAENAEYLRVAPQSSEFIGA
row,SMILES,IC50 [nM]
1,CC#CC(=NOC[C@@H]1COCCN1)c1ccc2ncnc(Nc3ccc(OCc4cccc(F)c4)c(Cl)c3)c2c1,101
2,C#CCN1CCC[C@H]1CON=C(C#CC)c1ccc2ncnc(Nc3ccc(OCc4cccc(F)c4)c(Cl)c3)c2c1,275
3,CC#CC(=NOC[C@H]1COCCN1)c1ccc2ncnc(Nc3ccc(OCc4cccc(F)c4)c(Cl)c3)c2c1,118
4,CC#CC(=NOCC(=O)NCCO)c1ccc2ncnc(Nc3ccc(COc4cccc(F)c4)c(Cl)c3)c2c1,122
5,COC[C@@H]1CCCN1N=Cc1ccc2ncnc(Nc3ccc(COc4cccc(F)c4)c(Cl)c3)c2c1,344
6,CN(N=Cc1ccc2ncnc(Nc3ccc(COc4cccc(F)c4)c(Cl)c3)c2c1)c1ccccc1,426
7,Fc1cccc(OCc2ccc(Nc3ncnc4ccc(C=NN5CCCCC5)cc34)cc2Cl)c1,193

# Now those with a lower IC50, led by results:
row,IC50 [nM],SMILES
1,20,CC#CC(=NOCC(=O)NCCN(C)C)c1ccc2ncnc(Nc3ccc(COc4cccc(F)c4)c(Cl)c3)c2c1
2,6.2,CC#CC(=NOC[C@@H]1COCCN1)c1ccc2ncnc(Nc3ccc(OCc4ccccn4)c(Cl)c3)c2c1
3,47,CC#CC(=NOCC(=O)NCCOS(C)(=O)=O)c1ccc2ncnc(Nc3ccc(COc4cccc(F)c4)c(Cl)c3)c2c1
4,9.7,CC#CC(=NOC[C@@H]1C[C@H](O)CN1)c1ccc2ncnc(Nc3ccc4c(cnn4Cc4cccc(F)c4)c3)c2c1
